Legend:
[1] = Body mass and body water compartments (bioimpedance) before and after 7-day supplementation; assay type: in vivo, human; details: for Change in extracellular water (ECW) post- vs pre-supplementation / Change in intracellular water (ICW) post- vs pre-supplementation / Change in total body water (TBW) post- vs pre-supplementation: bioimpedance; for Change in extracellular water (ECW) post- vs pre-supplementation / Change in intracellular water (ICW) post- vs pre-supplementation / Change in total body water (TBW) post- vs pre-supplementation / Change in body mass (BM) post- vs pre-supplementation: supplementation week; for Change in body mass (BM) post- vs pre-supplementation: well-trained cyclists, final supplement 5 hours prior
Protocol: (§1) The experimental design and protocol are complicated and is best understood by reference to FIGS. 1 and 2. The study consisted of two supplementation regimens, each lasting 7 days and encompassing four cycle performance trials consisting of 40 min constant-load exercise at 63% WRmax followed by a 16.1 km (10 mile) time trial. Prior to the first of these experimental trials, familiarisation trials were completed until the variability of two consecutive trials was within 5%. Following this familiarisation period, subjects were matched for body mass (BM) and were randomised in a double blind fashion to either a Cr or a placebo (Pl) group. Subjects performed an exercise trial pre- and post-supplementation in both supplementation weeks. The first test was conducted at least 48 hours after each subject's final familiarisation trial. Each supplementation period started on the day after the first test and finished on the day of the second test.
(§2) Cr supplementation consisted of 22.8 g·d^−1 of Cr.H2O (equivalent to 10 g Cr×2 daily) and 140 g of glucose polymer (70 g×2 daily) made up in 2 L of warm to hot water for 6 days. […] Each supplementation was made freshly prior to consumption in order to prevent any degradation of Cr to creatinine (Crn). The Pl supplement consisted of 170 g·d^−1 of glucose polymer (85 g×2 daily). During the first and third week of the experimental regimen, subjects in both groups received either 1 g glycerol (Gly) per·kg BM or an equivalent amount of Pl (sucrose solution) diluted in each supplement. In both post-supplementation trials (days 8 and 22) subjects consumed the appropriate supplement 5 hours prior to exercise. […] All supplements had similar taste, texture and appearance and were placed in generic water bottles to ensure double blind administration. On each of the experimental test days (i.e. days 1, 8, 15, 22) subjects ingested 500 ml of water 3 hours prior to exercise and a further 500 ml of water 1 hour prior to exercise to ensure subjects were adequately hydrated prior to all exercise trials (American College of Sports Medicine, 2000).
(§3) Procedures. Subjects reported to the laboratory on the day of testing following a 3 hr fast and having refrained from alcohol, caffeine and strenuous exercise the day before. Upon arrival at the laboratory, height and nude BM were measured and body water compartments were estimated using a Bodystat Multiscan 5000 Bioimpedance analyser (Bodystat Ltd, Isle of Man) (Van Loan, 1990). This method allows TBW and ECW to be estimated; from these measurements ICW can also be deduced. The bioimpedance measurements were taken while the subjects lay comfortably in a supine position on a non-conductive surface with their arms and legs slightly abducted. Following the bioimpedance measurement, a flexible rectal thermistor was inserted 10 cm beyond the anal sphincter to measure rectal temperature (Tre), an index of core temperature (Tc) and a heart rate (HR) monitor (Polar Sports Tester, Polar Electro Oy, Kempele, Finland) was attached. The subject's right hand and forearm were immersed in water at 42-44° C. for 15 min in order to allow for arterialisation of the venous blood (Forster at al. 1972). Following this, a 21 G cannula was introduced into a superficial vein on the dorsal surface of the heated hand. The subject was transferred to the climatic chamber (ambient temperature 30±1° C. with a relative humidity of 70±2% and air velocity of approximately 1.8 m·sec^−1) and seated on the cycle ergometer for 5 min. During this period thermistors (C8600 10 channel microprocessor, Comark, Hertfordshire, UK) were attached to the subject's chest, tricep, thigh and calf for the determination of weighted mean skin temperature (Tskin) (Ramanthan, 1964). The subject remained seated on the cycle ergometer for a further 1 min while resting HR, Tre, Tskin were recorded and a blood sample (10 ml) obtained. The venous cannula was kept patent by a 10 ml infusion of isotonic saline between samples. […]

[2] = Cycle exercise in the heat: 40 min constant load at 63% WRmax followed by 16.1 km time trial; assay type: in vivo, human; details: for Core temperature (Tc, rectal) during exercise post- vs pre-supplementation / Heart rate (HR) during exercise post- vs pre-supplementation: 30 C, 70% relative humidity; for RPE for breathlessness post- vs pre-supplementation / RPE for perceived leg fatigue post- vs pre-supplementation: Borg category scale; for Change in plasma volume (delta PV) during exercise post- vs pre-supplementation: calculated from Hb and PCV
Protocol: as §1, §2, §3

[3] = Side effects of the supplementation protocol; assay type: in vivo, human; details: 18 subjects
Source text: as §2
Side effects. […] 3 subjects from each group correctly identified the subject group and 2 subjects correctly identified the Gly supplementation week, while, all other subjects were unsure of the treatment they received.

[4] = consumed with a substantial fluid intake; by reducing urinary volume; cited from earlier work
[5] = bioimpedance estimate after supplementation

SMILES	Increase in plasma volume (PV) ([1]; assuming 7.5% of the increase in TBW is plasma)	Increase in TBW (estimated, on average) [1, 5]	Part of TBW increase accounted for by increase in ICW [1, 5]	Change in extracellular water (ECW) post- vs pre-supplementation [1]	Change in intracellular water (ICW) post- vs pre-supplementation [1]	Change in total body water (TBW) post- vs pre-supplementation [1]	Change in body mass (BM) post- vs pre-supplementation [1]	Core temperature (Tc, rectal) during exercise post- vs pre-supplementation [2]	Heart rate (HR) during exercise post- vs pre-supplementation [2]	RPE for breathlessness post- vs pre-supplementation [2]	RPE for perceived leg fatigue post- vs pre-supplementation [2]	Change in plasma volume (delta PV) during exercise post- vs pre-supplementation [2]	16.1 km time trial performance ([2]; post- vs pre-supplementation)	Part of TBW increase accounted for by increase in ECW [1, 5]	Side effects reported [3]	Fluid expansion or retention above a fluid bolus alone [4]
CN(CC(=O)O)C(=N)N [Cr, methyl guanidine acetic acid]	approximately 51 ml	680 mL	500 mL	increased significantly	increased significantly	increased significantly	increased significantly	significantly lower	significantly lower	Lower	Significantly lower	lower	no effect	–	–	–
OCC(O)CO [Gly, glycerol]	–	600 mL	–	increased significantly	no significant increase	increased significantly	increased significantly	not significantly different	significantly lower	no such effect	no such effect	not significantly different	–	400 mL	only one report of gastrointestinal distress	~600 mL

— patent publication US20070249559A1, “Hydrating Composition” (priority 2004, published 2007)
